Reference: ChEMBL document CHEMBL1136896, “Synthesis and biological evaluation of arylhydrazinocyanoacrylates and N-aryl pyrazolecarboxylates” (2009)

Columns and labels:
Type in all cases: functional
Amaranthus retroflexus [1] = assay: Herbicidal activity against Amaranthus retroflexus at 1.5 kg/hectare administered postemergence of first true leaf measured after 10 days; conditions: post-emergence, 240 h
Brassica napus [2] = assay: Herbicidal activity against Brassica napus at 1.5 kg/hectare administered postemergence of first true leaf measured after 10 days; conditions: post-emergence, 240 h
HL-60 [3] = assay: Antitumor activity against human HL60 cells at 1 uM/L after 72 hrs by MTT assay; conditions: HL-60, 72 h
Amaranthus retroflexus [4] = assay: Herbicidal activity against Amaranthus retroflexus at 1.5 kg/hectare administered preemergence of first true leaf measured after 10 days; conditions: pre-emergence, 240 h
Bel-7402 [5] = assay: Antitumor activity against human Bel7402 cells at 100 uM/L after 72 hrs by MTT assay; conditions: Bel-7402, 72 h
Bel-7402 [6] = assay: Antitumor activity against human Bel7402 cells at 10 uM/L after 72 hrs by MTT assay; conditions: Bel-7402, 72 h
HL-60 [7] = assay: Antitumor activity against human HL60 cells at 1000 uM/L after 72 hrs by MTT assay; conditions: HL-60, 72 h
Bel-7402 [8] = assay: Antitumor activity against human Bel7402 cells at 1 uM/L after 72 hrs by MTT assay; conditions: Bel-7402, 72 h
Fusarium graminearum = assay: Fungicidal activity against Gibberella zeae assessed as inhibition of mycelium growth at 50 mg/L after 72 hrs
Medicago sativa [9] = assay: Herbicidal activity against Medicago sativa at 1.5 kg/hectare administered preemergence of first true leaf measured after 10 days; conditions: pre-emergence, 240 h
[10] = system: Botryosphaeria berengeriana; assay: Fungicidal activity against Physalospora pyricola assessed as inhibition of mycelium growth at 50 mg/L after 72 hrs
HL-60 [11] = assay: Antitumor activity against human HL60 cells at 10 uM/L after 72 hrs by MTT assay; conditions: HL-60, 72 h
HL-60 [12] = assay: Antitumor activity against human HL60 cells at 100 uM/L after 72 hrs by MTT assay; conditions: HL-60, 72 h
Digitaria sanguinalis [13] = assay: Herbicidal activity against Digitaria sanguinalis at 1.5 kg/hectare administered postemergence of first true leaf measured after 10 days; conditions: post-emergence, 240 h
Medicago sativa [14] = assay: Herbicidal activity against Medicago sativa at 1.5 kg/hectare administered postemergence of first true leaf measured after 10 days; conditions: post-emergence, 240 h
Brassica napus [15] = assay: Herbicidal activity against Brassica napus L. at 1.5 kg/hectare administered preemergence of first true leaf measured after 10 days; conditions: pre-emergence, 240 h
Cucumis sativus = assay: Growth regulatory activity in cucumber assessed as root growth at 10 mg/L incubated in dark for 5 days
Bel-7402 [16] = assay: Antitumor activity against human Bel7402 cells at 1000 uM/L after 72 hrs by MTT assay; conditions: Bel-7402, 72 h
Alternaria solani = assay: Fungicidal activity against Alternaria solani assessed as inhibition of mycelium growth at 50 mg/L after 72 hrs
Cladosporium cucumerinum = assay: Fungicidal activity against Cladosporium cucumerinum assessed as inhibition of mycelium growth at 50 mg/L after 72 hrs
Digitaria sanguinalis [17] = assay: Herbicidal activity against Digitaria sanguinalis (L.) Scop. at 1.5 kg/hectare administered preemergence of first true leaf measured after 10 days; conditions: pre-emergence, 240 h
Mycosphaerella arachidis = assay: Fungicidal activity against Cercospora arachidicola assessed as inhibition of mycelium growth at 50 mg/L after 72 hrs

| SMILES | inhibition at 1500 g/ha (Amaranthus retroflexus [1]) [%] | inhibition at 1500 g/ha (Brassica napus [2]) [%] | inhibition at 1 µM (HL-60 [3]) [%] | inhibition at 1500 g/ha (Amaranthus retroflexus [4]) [%] | inhibition at 100 µM (Bel-7402 [5]) [%] | inhibition at 10 µM (Bel-7402 [6]) [%] | inhibition at 1000 µM (HL-60 [7]) [%] | inhibition at 1 µM (Bel-7402 [8]) [%] | inhibition at 50 µg/mL (Fusarium graminearum) [%] | inhibition at 1500 g/ha (Medicago sativa [9]) [%] | inhibition at 50 µg/mL [10] [%] | inhibition at 10 µM (HL-60 [11]) [%] | inhibition at 100 µM (HL-60 [12]) [%] | inhibition at 1500 g/ha (Digitaria sanguinalis [13]) [%] | inhibition at 1500 g/ha (Medicago sativa [14]) [%] | inhibition at 1500 g/ha (Brassica napus [15]) [%] | Activity (Cucumis sativus) [%] | inhibition at 1000 µM (Bel-7402 [16]) [%] | inhibition at 50 µg/mL (Alternaria solani) [%] | inhibition at 50 µg/mL (Cladosporium cucumerinum) [%] | further results |
| --- | --- | --- | --- | --- | --- | --- | --- | --- | --- | --- | --- | --- | --- | --- | --- | --- | --- | --- | --- | --- | --- |
| CCOCCOC(=O)/C(C#N)=C(/CC)NNc1cc(Cl)c(Cl)cc1Cl | 15.6 | 0 | 8.3 | 5.9 | 0 | 0 | 80.4 | 0 | 9.6 | 0 | 36 | 11.8 | 7.3 | 0 | 4.7 | 0 | -39 | 94.5 | 10 | 13.9 | inhibition at 1500 g/ha (Digitaria sanguinalis [17]): 3.8%; inhibition at 50 µg/mL (Mycosphaerella arachidis): 21.3% |
| CCOCCOC(=O)/C(C#N)=C(/CC)NNc1c(Cl)cccc1Cl | 22.7 | 11.1 | 4.3 | 8.8 | 54.6 | 17.1 | 80.4 | 11.5 | 0 | 0 | 24 | 35.9 | 72.4 | 0 | 2.3 | 5.3 | -6 | 79.8 | 10 | 0 | inhibition at 1500 g/ha (Digitaria sanguinalis [17]): 0%; inhibition at 50 µg/mL (Mycosphaerella arachidis): 24.4% |
| CCOCCOC(=O)/C(C#N)=C(\NNc1ccc(Cl)cc1Cl)C(C)C | 3.9 | 1.6 | 0 | 0 | 6.5 | 4.3 | 73.2 | 5.3 | 4.8 | 0 | 73.3 | 6 | 17.6 | 17.9 | 7.5 | 0 | -27.8 | 45.9 | 40 | 22.2 | inhibition at 1500 g/ha (Digitaria sanguinalis [17]): 3.8%; inhibition at 50 µg/mL (Mycosphaerella arachidis): 51.5% |
| CCOCCOC(=O)/C(C#N)=C(/CC)NNc1cccc(Cl)c1Cl | 15.6 | 4.3 | 21.2 | 5.9 | 24.9 | 12.1 | 69.4 | 11.6 | 14.4 | 0 | 65.3 | 26.8 | 50 | 5.4 | 3.3 | 0 | -12.7 | 55.3 | 20 | 13.9 | inhibition at 1500 g/ha (Digitaria sanguinalis [17]): 0%; inhibition at 50 µg/mL (Mycosphaerella arachidis): 24.2% |
| CCOCCOC(=O)/C(C#N)=C(\NNc1c(Cl)cccc1Cl)C(C)C | 15.6 | 2.3 | 0 | 0 | 17.3 | 9.5 | 73.4 | 7.6 | 4.8 | 0 | 10.7 | 7.7 | 21.4 | 0 | 1.4 | 9.9 | -6 | 45.1 | 10 | 0 | inhibition at 1500 g/ha (Digitaria sanguinalis [17]): 0%; inhibition at 50 µg/mL (Mycosphaerella arachidis): 0% |
| CCOCCOC(=O)/C(C#N)=C(\NNc1cc(Cl)c(Cl)cc1Cl)C(C)C | 20.3 | 5 | 7.1 | 5.9 | 0 | 0 | 81.1 | 0 | 14.4 | 0 | 26.7 | 23.4 | 1.5 | 0 | 3.7 | 0 | -1.5 | 96.9 | 10 | 16.7 | inhibition at 1500 g/ha (Digitaria sanguinalis [17]): 0%; inhibition at 50 µg/mL (Mycosphaerella arachidis): 18.2% |
| CCOCCOC(=O)/C(C#N)=C(\NNc1cccc(Cl)c1Cl)C(C)C | 22.7 | 0.2 | 24.3 | 0 | 19 | 15.1 | 48.8 | 14.7 | 14.4 | 0 | 66.7 | 28.7 | 36.2 | 16.1 | 5.1 | 0 | 72.9 | 49.1 | 35 | 25 | inhibition at 1500 g/ha (Digitaria sanguinalis [17]): 0%; inhibition at 50 µg/mL (Mycosphaerella arachidis): 36.4% |
